Experimental data published in US20100234402A1, “METHODS AND COMPOSITIONS FOR TREATING SPINAL MUSCULAR ATROPHY” (priority 2007, published 2010).
pIC50: −log10 of the molar value.

Legend:
SMN complex [1] = biological target: T1, SMN complex (Homo sapiens, UniProt Q16637); assay: Magnetic beads snRNP assembly assay in vitro with cell extracts; assay type: biochemical; details: for pIC50: extracts of untreated cells, read-out: IC50, inhibition of the activity of the SMN complex in vitro
T1 construct: HeLa cell extracts (containing the SMN complex and all the components required for Sm core assembly); endogenous in cells; host or cells: HeLa: S3 cytoplasmic or total extracts for in vitro reactions, HeLa PV total extracts for compound-treated cells
T1 sequence (Q16637 2-294 limits assumed): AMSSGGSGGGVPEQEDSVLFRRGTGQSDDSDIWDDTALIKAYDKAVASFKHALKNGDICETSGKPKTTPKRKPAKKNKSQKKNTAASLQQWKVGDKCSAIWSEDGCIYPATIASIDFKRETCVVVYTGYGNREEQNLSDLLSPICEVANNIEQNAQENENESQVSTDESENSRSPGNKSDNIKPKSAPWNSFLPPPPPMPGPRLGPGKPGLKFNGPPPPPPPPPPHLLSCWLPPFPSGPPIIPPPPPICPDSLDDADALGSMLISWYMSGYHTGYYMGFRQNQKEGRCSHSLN
T1 sequence (O14893 whole entry partner): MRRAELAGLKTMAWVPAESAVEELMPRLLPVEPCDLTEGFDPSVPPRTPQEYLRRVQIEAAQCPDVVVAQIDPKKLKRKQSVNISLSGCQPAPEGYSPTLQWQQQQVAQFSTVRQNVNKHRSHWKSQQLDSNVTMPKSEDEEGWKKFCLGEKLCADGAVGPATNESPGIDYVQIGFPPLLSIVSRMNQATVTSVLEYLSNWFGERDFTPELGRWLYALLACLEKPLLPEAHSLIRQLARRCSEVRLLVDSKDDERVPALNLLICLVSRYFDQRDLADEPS
Procedure: (§1) Magnetic beads snRNP assembly assay was carried out in the presence of increasing amounts of H2O2. IC50 was calculated from the dose-response curve. The error bars represent SDs from 3 independent measurements. (B) Effect of menadione on the activity of the SMN complex in vitro. The same experimental procedure was carried out as in (A), except that menadione was used instead. (C) Dose-dependent effect of menadione on the activity of the SMN complex in cells. HeLa cells were treated with menadione at the indicated concentrations or with DMSO control for 1 hour. The activity of the SMN complex in extracts from various treated cells was measured in comparison to DMSO control cell extract (100% activity) by magnetic beads snRNP assembly assay. The error bars represent SDs from 3 independent measurements. (D) Extracts from (C) mixed with sample buffer without (−DTT) or with (+DTT) reducing agent were resolved by SDS-PAGE and analyzed by Western blot of the entire membrane with anti-SMN antibody 62E7. The molecular mass markers in 41 kDa are indicated on the left. “redSMN” indicates monomer SMN migrating at normal molecular mass and “oxSMN” indicates disulfide-crosslinked SMN upon oxidation. (E) β-lapachone and menadione generate ROS in live cells. HeLa cells were incubated with ROS indicator dye H2DCFDA (10 μM) or without dye as a control for 30 minutes, and then treated with the compounds at the indicated concentrations or DMSO as a control. Fluorescence images were acquired 30 minutes after the treatment.
(A) Cell extracts treated with 20 μM β-lapachone, or 20 μM β-lapachone together with 20 μM DTT, or DMSO control were analyzed by non-reducing Western blot. The relative levels of monomer SMN (“redSMN”) were calculated as the percentage of that in DMSO control and shown by the blue bar. Assembly activities of the SMN complex were measured by magnetic beads snRNP assembly assay using the same set of treated extracts and shown by the red bar. The error bar represents SDs from 3 independent experiments. (B) The sulfhydryl modifying reagent iodoacetamide inhibits the activity of the SMN complex. In vitro assembly assays were performed in the presence of various concentrations of iodoacetamide. The activity of the SMN complex in the absence of iodoacetamide was set as 100% activity, and the relative activity at each iodoacetamide concentration was calculated in comparison and graphed. The error bars represent SDs from triplicate samples.
For quantitative in vitro assembly assays on magnetic beads, cytoplasmic extracts were prepared and used for assembly on biotin-labeled snRNAs using the standard reconstitution conditions in 96-well plates. Following the reactions, Y12 antibodies immobilized onto the magnetizable Dynabeads Protein A (Dynal Biotech ASA, Oslo, Norway) in 100 μl of RSB-500 buffer ([…]) containing 2 mg/ml heparin, 0.1% NP-40, and 0.2 U/.μl RNasin Plus RNase inhibitor (Promega, Madison, Wis.) were added to each well. Immunoprecipitations in the 96-well plates were carried out with gentle mixing at 750 rpm in a Thermomixer (Eppendorf, Germany) at 30° C. for 1 hour. The plates were subsequently transferred to a Kingfisher 96 magnetic particle processor (Thermo Labsystems, Vantaa, Finland) for automatic washing of the Dynabeads in each well with wash buffer (RSB-500, 0.1% NP-40) 5 times. After the last wash, beads bound to Y12 immunoprecipitated snRNPs were then resuspended in 120 μl of wash buffer containing 0.08 μg/ml horseradish peroxidase (HRP)-conjugated NeutrAvidin.TM. (Pierce, Rockford, Ill.). Following incubation at 30° C. for 1 hour with gentle mixing, the beads in each well were again washed five times with the Kingfisher 96 magnetic particle processor, and finally resuspended in 150 μl of SuperSignal ELISA Femto Substrate Working Solution (Pierce). […]

SMN complex [2] = biological target: T1, SMN complex; assay: Magnetic beads snRNP assembly assay on extracts from compound-treated HeLa cells; assay type: cell-based
Procedure: (§2) (B) Concentration-dependent inhibition of the activity of the SMN complex by b-lapachone in cells. HeLa cells were treated with various concentrations of β-lapachone or with DMSO (control) for 1 hour. The activity of the SMN complex in extracts from treated cells was measured using magnetic beads snRNP assembly assay and compared to that of DMSO-treated control cells (100% activity). IC50 was calculated from the dose-response graph. The error bars represent SDs from 3 independent measurements. […] Assembly reactions were performed using either cell extracts or purified native […] snRNP proteins lacking the SMN complex (Sm proteins). Both samples were adjusted to contain a similar amount of Sm proteins. Magnetic beads snRNP assembly assay were carried out with U4 or control U4DSm snRNA in the presence of either 20 or 100 μM β-lapachone or DMSO control. Sm core assembly on U4 snRNA in the presence of DMSO was considered 100% activity. The error bars represent SDs from 3 independent measurements.
In vitro transcription and labeling of RNAs was carried out using MEGAshortscript T7 transcription kit (Ambion) with the modification that 0.65 μM biotin-16-UTP (Roche) and 2.6 μM UTP were used in the reactions to produce biotinlabeled RNAs (Wan et al., 2005). Cell culture, drug treatment and preparation of cell extracts HeLa S3 cell pellets were purchased from National Cell Culture Center. Cytoplasmic extracts competent for snRNP assembly were prepared as described (Pellizzoni et al., 2002). Total cell extracts were made by resuspending cell pellets in reconstitution buffer ([…], 0.2 mM EDTA, 5% glycerol) containing 50 µg/ml digitonin (Calbiochem) and 1× Complete EDTA-free Protease Inhibitor Cocktail (Roche), followed by sonication. Nonidet P-40 (NP-40) was added to a final concentration of 0.01%, followed by centrifugation at 10,000 rpm for 15 minutes at 4° C. Glycerol was then added to the supernatant at a final concentration of 5%. For various drug treatments, two 10 cm plates of HeLa PV cells were treated with each drug at the indicated concentrations and times. Cells were harvested (˜90% confluent) and total cell extracts prepared using the aforementioned procedures. Protein concentrations of various extracts were determined using the Bradford protein assay (BioRad). All of the extracts for the same experiment were adjusted to the same final protein concentration
For quantitative in vitro assembly assays on magnetic beads, cytoplasmic extracts were prepared and used for assembly on biotin-labeled snRNAs using the standard reconstitution conditions in 96-well plates. […] The plates were transferred to a Wallac Victor2 multi-label plate reader (Perkin-Elmer, Wellesley, Mass.) for luminescence measurements at 495 nm. […]

ROS in HeLa cells = assay: ROS detection in live HeLa cells with H2DCFDA dye; assay type: cell-based, human; details: for ROS generation in live cells (H2DCFDA fluorescence): 10 μM H2DCFDA, images 30 minutes after treatment
Procedure: as §1
Additional direct evidence for the ROS-generating activity of the compounds in live cells was obtained by staining cells with 2′,7′-dichlorodihydrofluorescein diacetate (H2DCFDA), a nonfluorescent dye that becomes fluorescent upon exposure to ROS. […] A significant level of ROS was apparent at 0.5 μM β-lapachone and increased proportionally with increasing b-lapachone concentrations.

Sm proteins = tested on: T2, Sm proteins; assay: Sm core assembly from purified native snRNP proteins lacking the SMN complex; assay type: biochemical, human; details: U4 snRNA, 20 or 100 μM
T2 construct: Native, RNA-free total snRNP proteins (TPs) were prepared from HeLa S3 cells; endogenous in cells; host or cells: HeLa S3 cells (pellets from National Cell Culture Center); proteins purified in house by the method of Sumpter et al., 1992
Procedure: as §2
Native, RNA-free total snRNP proteins (TPs) were prepared from HeLa S3 cells (National Cell Culture Center) as described previously (Sumpter et al., 1992). […] The other half of the samples were immunoprecipitated with anti-Sm monoclonal antibody (Y12), and the immunoprecipitated RNAs were isolated and analyzed by electrophoresis on […] urea/8% polyacrylamide gels. […]

[3] = tested on: transfected luciferase reporter; assay: Transcription and translation of a transfected luciferase reporter in treated cells; assay type: cell-based
SMN protein = assay: Quantitative non-reducing Western blot of SMN in extracts of treated HeLa cells; assay type: cell-based, human; details: 5 μM for 3 hours, prepared without DTT
Procedure: (B) HeLa total cell extracts prepared from cells treated for 3 hours with 5 μM β-lapachone or DMSO control were resolved by SDS-PAGE and analyzed by quantitative Western blotting, using JBP1 and Magoh as loading controls. The extracts were prepared and mixed with sample buffer without reducing agent. The membrane was cut into strips for the probing of each protein at the corresponding molecular mass.
For quantitative Western blot, cell extracts containing 20 g of total proteins were mixed with NuPAGE LDS sample buffer (Invitrogen) with or without reducing agent (Invitrogen), boiled for 5 minutes, and then separated on NuPAGE 4-12% Bis-Tris gels (Invitrogen) and transferred to nitrocellulose membranes. […] Mouse monoclonal antibodies, anti-SMN (62E7), anti-Gemin3 (12H12), anti-Gemin4 (17D10), anti-Gemin5 (10G11), anti-JBP1 (6G8), anti-Magoh (18G12) and anti-Sm (Y12), were used as described previously (Battle et al., 2006b; Lerner et al., 1981; Wan et al., 2005). The IRDye800 anti-mouse IgG secondary antibody (Rockland) was used at 1:5000.
To test this, extracts from b-lapachone-treated cells (at 5 μM for 3 hours) or DMSO-treated control cells were prepared in gel electrophoresis sample buffer without the reducing agent dithiothreitol (DTT) to preserve potential disulfides, resolved by SDS-PAGE, and analyzed by quantitative Western blots. […]

SMN = assay: Indirect immunofluorescence of SMN (2B1) and snRNPs (Y12) in HeLa PV cells; assay type: cell-based, human; details: 5 μM for 3 hours vs DMSO control

O[C@H](CS)[C@H](O)CS (racemic) [DTT, dithiothreitol]
prevention of the inhibitory effect of b-lapachone on SMN complex activity (SMN complex [1]; 20 μM b-lapachone with 20 μM DTT): completely neutralized

O=C1C(=O)c2ccccc2-c2ccccc21 [9,10-phenanthrenequinone]
inhibition of the SMN complex / assembly in cell extracts (in words) (SMN complex [1]; in vitro): strongly inhibit

OO [H2O2, hydrogen peroxide]
IC50, inhibition of the activity of the SMN complex in vitro (SMN complex [1]; in vitro, value in words): low millimolar range

CC(=O)N[C@@H](CS)C(=O)O [N-acetyl-L-cysteine]
prevention of the inhibition of b-lapachone, menadione and H2O2 (SMN complex [1]; in vitro assembly reactions): completely prevented

NC(=O)CI [iodoacetamide]
inhibition of the SMN complex / assembly in cell extracts (in words) (SMN complex [1]; in vitro): inhibits

CC1=CC(=O)c2ccccc2C1=O [menadione, 2-methyl-1,4-napthoquinone]
inhibition of SMN complex activity in cells (SMN complex [2]; HeLa cells treated for 1 hour): dose-dependent inhibition
pIC50 (SMN complex [1]): 4.60
ROS generation in live cells (H2DCFDA fluorescence) (ROS in HeLa cells): Dose-dependent fluorescence

O=C1C(=O)C(Cl)=C(Cl)C(Cl)=C1Cl [tetrachloro-1,2-benzoquinone]
inhibition of the SMN complex / assembly in cell extracts (in words) (SMN complex [1]; in vitro): strongly inhibit

CC1(C)CCC2=C(O1)C(=O)c1ccccc1C2=O [α-lapachone]
inhibition of the SMN complex / assembly in cell extracts (in words) (SMN complex [1]; in vitro): does not inhibit

CC1(C)CCC2=C(O1)c1ccccc1C(=O)C2=O [β-lapachone, 3,4-dihydro-2,2-dimethyl-2H-naphthol[1,2-b]pyran-5,6-dione]
pIC50 (SMN complex [2]; HeLa cells treated for 1 hour, read-out: IC50, inhibition of the activity of the SMN complex in treated cells): 6.35
inhibition of snRNP assembly activity (SMN complex [2]; extracts from cells treated for 6 hours with subtoxic concentration): about 90%
inhibition of snRNP assembly (SMN complex [2]; within 30 minutes of treatment): > 80%
pIC50 (SMN complex [1]): ~4.52
inhibition of the SMN complex / assembly in cell extracts (in words) (SMN complex [1]; in vitro): inhibited assembly in the cell extracts
effect on Sm core formation from the purified snRNP proteins (Sm proteins): no effect
inhibition of transcription and translation of a transfected luciferase reporter [3]: did not significantly inhibit
decrease of intensity of the SMN band (monomer) compared to DMSO controls (SMN protein): ~60%
SMN signal intensity or localization (SMN): no detectable difference
ROS generation in live cells (H2DCFDA fluorescence) (ROS in HeLa cells): Dose-dependent fluorescence
concentration at which a significant level of ROS was apparent (ROS in HeLa cells; HeLa cells, H2DCFDA): 0.5 µM
